Test results published in paper PMC5792594, “Engineering yeast for the production of breviscapine by genomic analysis and synthetic biology approaches” (Nature Communications, 2018).

Test system: T1, EbF7GAT
T1 construct: gene F7GAT; tag removal not mentioned
Experiment: HPLC of glucuronide product, initial-rate kinetics
Type: biochemical, Erigeron breviscapus
Conditions: UDP-glucuronic acid as donor (1 mM in standard assay), 50 mM Tris-HCl pH 7.5, 37 °C

| Km (5-300 µM scutellarein) [µM] | Km (10 min, 0.1-20 µM apigenin) [µM] | SMILES |
| --- | --- | --- |
| 70.2 | – | O=c1cc(-c2ccc(O)cc2)oc2cc(O)c(O)c(O)c12 [scutellarein] |
| – | 9.24 | O=c1cc(-c2ccc(O)cc2)oc2cc(O)cc(O)c12 [apigenin] |
